{
  "source": "paper PMC6143478",
  "about": "“Lipophilic activated ester prodrug approach for drug delivery to the intestinal lymphatic system” (Journal of Controlled Release, 2018)",
  "key": {"human chylomicrons (CM)": {"test_system": "human chylomicrons (CM)", "test": "Ex vivo association with human plasma-derived chylomicrons", "type": "in vitro ADME", "conditions": "1.755 μM, 37 °C, 1 h; in words, relative to parent drug", "source_text": "The protocol for preparation of human plasma-derived CM emulsion was approved by the Faculty of Medicine and Health Sciences Research Ethics Committee, Queens Medical Centre, Nottingham University Hospitals (BT12102015 CBS SoP). Healthy male volunteers of 19–40 years old and with body mass index of 18.5–25.0 were enrolled in the study after providing informed consent. The participants were excluded if any medication was used within one week prior to enrolment. On the morning of the study, participants received a high-fat meal (equivalent to a full English breakfast). Between 3 and 4 h following breakfast, 30 mL of blood was collected using heparinised tubes (Vacutainer® Blood Collection Tubes) and centrifuged (800 g, 10 min, 15 °C) to obtain plasma.\nCM separation was performed as previously reported with minor modifications. Briefly, KBr (0.57 g) was mixed with 4 mL of plasma to yield density of 1.1 g/mL. PBS with densities of 1.006, 1.019, and 1.063 g/mL were prepared by adding appropriate amounts of KBr. These PBS of different densities were layered on top of the plasma to build density gradient layers in polyallomer ultracentrifuge tubes. The samples were then centrifuged at 268,350 g for 35 min at 15 °C using an ultracentrifuge (SORVALL® TH-641 Rotor, Thermo Fisher Scientific, UK). Following ultracentrifugation, approximately 1 mL of the upper layer containing CM was collected. TG concentration of CM emulsion was assessed using the TG enzymatic kit (Sigma Aldrich, Dorset, UK). TG concentration of the emulsion was adjusted to 100 mg/dL by diluting with PBS of 1.006 g/mL density. The CM emulsion was stored at 4 °C until the association assay (˂24 h).\nThe association of the compounds with artificial lipid particle emulsion and human CM was assessed using previously reported methodology with minor modifications. Briefly, 1 mL of artificial lipid particle or CM emulsions (TG concentration 100 mg/dL) was used for the association assay. The emulsion was spiked with stock solutions of tested compounds (in acetonitrile) to give a final concentration of 1.755 μM. The reaction mixtures were incubated at 37 °C for 1 h with magnetic stirring at 300 rpm. Following the incubation, density gradient ultracentrifugation was applied as described above to isolate the artificial lipid particles or CM associated with the tested compounds from the rest of the experimental medium. All experiments were conducted in quintuplicates or above."}, "[1]": {"test": "Plasma pharmacokinetics following intravenous administration in rats", "type": "in vivo", "conditions": "i.v., dose equivalent to 2.5 mg/kg BEX, rat; in words", "protocol": "The protocols for pharmacokinetic and biodistribution experiments in this study were reviewed and approved by the University of Nottingham Ethical Review Committee in accordance with the Animals [Scientific Procedures] Act 1986. Male Sprague Dawley rats (Charles River Laboratories, UK) weighing 350–380 g were used. The animals were housed in the Bio Support Unit, University of Nottingham. Continuous lymph collection was performed according to a protocol approved by the Institutional Animal Care and Use Committee at Rutgers, The State University of New Jersey. Male Sprague Dawley rats (Envigo, Inc., NJ, USA) weighing 300–350 g were used for the continuous lymph collection. […]\nJugular vein cannulation surgery procedures were conducted under general anaesthesia for blood sampling. […] Blood samples of 250 μL volume were collected from the cannula at pre-determined time points following administration. […]\nThe HPLC-UV system consisting of a separation module (Waters Alliance 2695) equipped with a UV detector (Waters 996) was used for analysis. […] BEX and its prodrugs were detected at 259 nm and RA and its prodrugs at 357 nm.\nAssessment of statistical significance of differences between two groups was conducted by means of two-tailed unpaired t-test. Statistical significance among three or more groups was assessed by means of a one-way ANOVA followed by Tukey's multiple comparisons test. […]"}},
  "data": [
    {"compound": "C=C(c1ccc(C(=O)OCC)cc1)c1cc2c(cc1C)C(C)(C)CCC2(C)C", "note": "[prodrug 2]", "values": [
      {"measurement": "association with human chylomicrons (CM)", "setting": "human chylomicrons (CM)", "result": "equally high affinity to CM"},
      {"measurement": "conversion of prodrug to BEX in plasma in vivo", "setting": "[1]", "result": "rapidly converted to BEX"}
    ]}
  ]
}
